Assay results from patent US4963570A, “1-(acetylaminophenyl)-2-aminopropanone derivatives and pharmaceutical compositions thereof” (Laboratoire L. Lafon, priority 1983, dated 1990).
“Also recorded” adds a separate entry of the source. Structures can show the parent of a compound that is named as a salt.

Columns and labels:
mice [1] = test: motility reduced by habituation to the enclosure; type: in vivo, mouse; details: i.p., dose not stated
Experimental: After they have stayed in the actimeters for 18 hours, the mice (6 per dose, 12 control animals) receive CRL 41 224. They are immediately returned to their respective enclosures and, half an hour later, their motility is recorded for 30 minutes.

[2] = test system: peripheral α-adrenergic stimulation; test: signs of peripheral adrenergic stimulation; type: in vivo, mouse; rat; details: i.p.; dose not stated
Experimental: (§1) Groups of three animals are observed before and then 0.25 hour, 0.50 hour, 1 hour, 2 hours, 3 hours and 24 hours after the administration of CRL 41 224.

mice [3] = test: interaction with apomorphine in mice; type: in vivo, mouse; details: i.p.; dose not stated
Experimental: Groups of 6 mice receive CRL 41 224 0.5 hour before the subcutaneous injection of 1 or 16 mg/kg of apomorphine.

mice [4] = test: motility reduced by hypoxic aggression; type: in vivo, mouse; details: i.p., dose not stated
Experimental: Half an hour after they have received CRL 41 224, the mice (10 per dose, 20 control animals) are subjected to acute hypobaric anoxia [pressure reduction of 600 mm Hg (i.e. about 8×10^4 Pa) in 90 seconds; release of vacuum in 45 seconds] and are then placed in an actimeter, where their motility is recorded for 10 minutes.

immunological properties = test: immunological properties, overall; type: in vivo; details: dose not stated
From the text: The present 1-(acetylaminophenyl)-2-aminopropanone derivatives are useful in therapy. They all act on the CNS, more precisely as antidepressants. They have a stimulant or excitant component in their neuropsychopharmacological profile.

mice [5] = test: asphyxiant anoxia (gallamine triiodoethylate); type: in vivo, mouse; details: i.p., high dose
Experimental: Groups of 10 mice receive CRL 41 224 half an hour before the intraperitoneal administration of 32 mg/kg of gallamine triiodoethylate (reference curarizing agent).

mice [6] = test: four plate test, traction and electric shock; type: in vivo, mouse; details: i.p.
Experimental: The test is performed on groups of 10 mice 30 minutes after the administration of CRL 41 224.

male mice = test: acute toxicity, intraperitoneal (lethal doses); type: in vivo, mouse; details: i.p.
Experimental: By intraperitoneal administration to male mice, the LD-30 (lethal dose for 30% of the animals tested) is of the order of 128 mg/kg and the LD-50 is of the order of about 200 mg/kg.

CNS = test: overall neuropsychopharmacological (CNS) profile; type: in vivo, mouse; rat; details: i.p., mice and rats; dose not stated
Experimental: The neuropsychopharmacological study of CRL 41 219 was carried out as indicated above for CRL 41 224.
The neuropsychopharmacological study of CRL 41 220 was carried out in accordance with the procedures given above for CRL 41 224.

[7] = test system: spleen cells expressing a direct IgM antibody response; test: test for cells forming lysis areas (PFC IgM, Cunningham); type: in vivo, mouse; details: oral; for activity index I / counts ± e.s.m. (lysis areas per spleen): mice
Experimental: Immunological assays were carried out in order to point out the interest of CRL 41 240 as an immunomodulating agent. Specifically, the test used was the so-called test for cells forming lysis areas, described by A. J. […] et al. ("Further improvements in the plaque technique for detecting simple antibody forming cells"), Immunology 14, pages 599-601 (1968).
The test for cells forming lysis areas (or PFC IgM) explores the humoral immunity. Four days after immunization with a T-dependent antigen (in this case red blood corpuscles of sheep), the spleen cells expressing a direct IgM antibody response are counted. The mice used for this purpose are conventional female OF1 mice devoid of specific pathogenic organisms, weighing from 20 to 30 g and divided up into a control group of 14 animals and groups each containing 7 animals per dose and per product to be studied, administered orally on the same day as the antigen. An activity index I is calculated for each dose of product according to the following equation: [formula]
This test is performed at least twice for each dose of test product [C(control amimals), 0.01, 0.1, 10 and 100 mg/kg] and a statistical study is undertaken using the Student t test after variance analysis on the number of lyses per spleen.

mice [8] = test: interaction with barbital; type: in vivo, mouse; details: for sleep induced by barbital: i.p., dose not stated
Experimental: Half an hour after the administration of CRL 41 224, groups of 10 mice receive an intraperitoneal injection of barbital (220 mg/kg).

mice [9] = test: overall behavior and reactivities in mice; type: in vivo, mouse; details: mice, i.p.; dose not stated
Experimental: as §1

mice [10] = test: interaction with reserpine; type: in vivo, mouse; details: i.p.; dose not stated
Experimental: Four hours after the intraperitoneal injection of 2.5 mg/kg of reserpine, groups of 6 mice receive CRL 41 224.

rats [11] = test: interaction with amphetamine; type: in vivo, rat; details: rats, i.p.; dose not stated
Experimental: Amphetamine (2 mg/kg) is injected intraperitoneally into groups of 6 rats 30 minutes after the administration of CRL 41 224.

rats [12] = test: interaction with apomorphine in rats; type: in vivo, rat; details: i.p., dose not stated
Experimental: CRL 41 224 is administered to groups of 6 rats 0.5 hour before the subcutaneous injection of 0.5 mg/kg of apomorphine.

rats [13] = test: overall behavior and reactivities in rats; type: in vivo, rat; details: i.p., dose not stated
Experimental: as §1

mice [14] = test: interaction with oxotremorine; type: in vivo, mouse; details: i.p.; dose not stated
Experimental: CRL 41 224 is administered to groups of 6 mice 0.5 hour before the intraperitoneal injection of 0.5 mg/kg of oxotremorine.

mice [15] = test: action on the behavioral despair; type: in vivo, mouse; details: i.p., dose not stated
From the text: Half an hour after they have received CRL 41 224, groups of 6 mice are placed in a beaker filled with water to a height of 6 cm. The total period of immobility between the 2nd and 6th minutes following immersion is noted.

mice [16] = test: action on the spontaneous motility (actimeter); type: in vivo, mouse; details: for spontaneous motility / motor activity: mice, i.p., dose not stated
Experimental: 0.5 hour after they have received CRL 41 224, the mice (6 per dose, 12 control animals) are placed in an actimeter, where their motility is recorded for 30 minutes.

[17] = test system: spleen cells expressing a direct IgM antibody response; test: test for cells forming lysis areas (PFC IgM, Cunningham); type: in vivo, mouse; details: mice, oral, 1 mg/kg
rats [18] = test: action on stereotypies in rats (α-methyltyrosine, haloperidol, reserpine); details: i.p.
man = test: clinical trials; type: in vivo, human; details: tablets or gelatine capsules 2 mg, 2 to 3 per day
mice [19] = test: toxicity to grouped mice compared with isolated mice; type: in vivo, mouse

SMILES	motor activity after habituation to the enclosure (mice [1])	exophthalmos [2]	mydriasis [2]	peripheral adrenergic stimulation, overall [2]	hypothermia induced by apomorphine (mice [3])	motor recovery after hypoxic aggression (mice [4])	overall action on the CNS (CNS)	sleep induced by barbital (mice [8])	excitation in mice (mice [9])	hypothermia induced by reserpine (mice [10])	ptosis induced by reserpine (mice [10])	stereotypies induced by amphetamine (rats [11])	stereotypies induced by apomorphine (rats [12])	stereotype movements in rats (rats [13])	hypothermia induced by oxotremorine (mice [14])	period of immobility or "despair" (mice [15])	spontaneous motility / motor activity (mice [16])	other results
CC(=O)Nc1ccc(C(=O)C(C)N2CCCCC2)cc1 (centres unmarked) [CRL 41 240, 1-(4-acetylaminophenyl)-2-piperidinopropanone hydrochloride]	resumption in the activity of mice accustomed to their enclosure	exophthalmos	mydriasis	peripheral α-adrenergic stimulation	antagonism of the hypothermia induced by apomorphine	improvement in the motor recovery	behaves as an antidepressant and stimulant for the CNS	very distinct antagonism of the sleep induced by barbital	excitation in mice	antagonism of the hypothermia induced by apomorphine, reserpine	antagonism of the ptosis induced by reserpine	potentiation of the stereotypies induced by apomorphine and amphetamine	potentiation of the stereotypies induced by apomorphine	presence of stereotype movements	antagonism of the hypothermia induced by apomorphine, reserpine and oxotremorine	reduction in the period of immobility	increase in the motor activity	immunological properties, overall (immunological properties): beneficial immunomodulating effects; time taken for asphyxiant convulsions (and death) to occur (mice [5]): increase in the time taken for asphyxiant convulsions to occur; convulsant effects of electric shock (mice [6]; strong/high dose): antagonism of the convulsant effects of electric shock; LD-0 (maximum non-lethal dose) (male mice): greater than 256 mg/kg; minimal effective dose ([7]; Mus musculus, female OF1 mice, read-out: lowest immunologically active dose): 0.1 mg/kg; activity index I ([7]; 0.01 mg/kg): 1.23; counts ± e.s.m. (lysis areas per spleen) ([7]; 0.01 mg/kg): 64.5 ± 11.99 m.10^3 /rate; activity index I ([7]; 0.1 mg/kg): 1.25; counts ± e.s.m. (lysis areas per spleen) ([7]; 0.1 mg/kg): 65.7 ± 11.60 m.10^3 /rate; activity index I ([7]; 10 mg/kg): 1.52; counts ± e.s.m. (lysis areas per spleen) ([7]; 10 mg/kg): 79.4 ± 11.54 m.10^3 /rate; activity index I ([7]; 100 mg/kg): 1.31; counts ± e.s.m. (lysis areas per spleen) ([7]; 100 mg/kg): 68.8 ± 7.21 m.10^3 /rate; stereotype movements in mice (mice [9]): presence of stereotype movements; excitation in rats (rats [13]): excitation in mice and rats; activity index I [17]: 1.65; counts ± e.s.m. (lysis areas per spleen) [17]: 86.5 ± 13.74 m.10^3 /rate
CC(=O)Nc1ccc(C(=O)C(C)NC(C)(C)C)cc1 (centres unmarked) [CRL 41 177]	a resumption in the motor activity of mice accustomed to their enclosure	absent	mydriasis	effects which may reflect peripheral adrenergic stimulation	antagonism of the hypothermia induced by apomorphine	an improvement in the motor recovery in mice after acute hypoxia	stimulant effects; also recorded: antidepressant effects	antagonism of the sleep induced by barbital	excitation with hyperreactivity in mice	antagonism of the hypothermia induced by apomorphine, oxotremorine or reserpine	antagonism of the ptosis induced by reserpine	potentiation of the stereotypies induced by apomorphine or amphetamine	potentiation of the stereotypies induced by apomorphine	stereotype movements in rats	antagonism of the hypothermia induced by apomorphine, oxotremorine	a reduction in the immobility	an increase in the spontaneous motility in mice	salivation [2]: absent; suppression of induced stereotype movements by prior injection of alpha-methyltyrosine (rats [18]): not suppressed; clinical result: antidepressant (man): excellent antidepressant drug; convulsant effects of electric shock (mice [6]; dose not stated): potentiate the convulsant effects of electric shock; interaction with barbital, gastric versus intraperitoneal (mice [8]; male mice, gastric): greater than on intraperitoneal administration; toxicity to grouped mice compared with isolated mice (mice [19]): do not increase the toxicity to grouped mice; trembling caused by oxotremorine (mice [14]): antagonism of the trembling caused by oxotremorine; effect on spontaneous motility, gastric versus intraperitoneal (mice [16]; male mice, gastric): greater than on intraperitoneal administration
